The supplement of paper PMC12370961

Key:
Assay in all cases: differential drug sensitivity score (dDSS) relative to sarcoma reference cohort mean DSS (DSS units (0-100 scale difference)); higher = more selective sensitivity than reference sarcomas
Settings in all cases: exposure time: 72 h; concentration range: 10-10000 nM
[1] = tested on: ES-ZH004 (patient-derived Ewing sarcoma tumoroid)
Protocol: (§1)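 Drug response profiling of patient-derived Ewing sarcoma and CIC::DUX4 sarcoma tumoroid models (or cells tested directly after isolation from the tumor, 'direct'). The DSS is the normalised AUC (0-100); dDSS is the sample DSS minus the mean DSS of a 34-sarcoma reference cohort profiled in the same lab.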

[2] = tested on: ES-ZH002 (patient-derived Ewing sarcoma tumoroid)
Protocol: as §1

[3] = tested on: ES-ZH008 (patient-derived Ewing sarcoma tumoroid)
Protocol: as §1

[4] = tested on: ES-ZH007 (patient-derived Ewing sarcoma tumoroid)
Protocol: as §1

[5] = tested on: CDS-ZH002 (patient-derived CIC-DUX4 sarcoma tumoroid)
Protocol: as §1

[6] = tested on: ES-ZH009 (patient-derived Ewing sarcoma tumoroid)
Protocol: as §1

[7] = tested on: CDS-ZH002 direct (CIC-DUX4 sarcoma cells right after isolation)
Protocol: as §1

[8] = tested on: ES-ZH016 (patient-derived Ewing sarcoma tumoroid)
Protocol: as §1

[9] = tested on: ES-ZH001 (patient-derived Ewing sarcoma tumoroid)
Protocol: as §1

[10] = tested on: ES-ZH016 direct (Ewing sarcoma cells right after isolation)
Protocol: as §1

[11] = tested on: CDS-ZH003 (patient-derived CIC-DUX4 sarcoma tumoroid)
Protocol: as §1

[12] = tested on: CDS-ZH001-2 (patient-derived CIC-DUX4 sarcoma tumoroid)
Protocol: as §1

[13] = tested on: CDS-ZH001 (patient-derived CIC-DUX4 sarcoma tumoroid)
Protocol: as §1

| Structure (SMILES) | differential drug sensitivity score [1] | differential drug sensitivity score [2] | differential drug sensitivity score [3] | differential drug sensitivity score [4] | differential drug sensitivity score [5] | differential drug sensitivity score [6] | differential drug sensitivity score [7] | differential drug sensitivity score [8] | differential drug sensitivity score [9] | differential drug sensitivity score [10] | differential drug sensitivity score [11] | differential drug sensitivity score [12] | differential drug sensitivity score [13] |
| --- | --- | --- | --- | --- | --- | --- | --- | --- | --- | --- | --- | --- | --- |
| CS(=O)(=O)CCNCc1ccc(-c2ccc3ncnc(Nc4ccc(OCc5cccc(F)c5)c(Cl)c4)c3c2)o1 [Lapatinib] | -0.7 | 0.3 | -0.7 | -0.7 | -0.7 | -0.7 | -0.7 | -0.7 | -0.7 | -0.5 | -0.7 | -0.5 | -0.7 |
| C=CC(=O)N1CCN(CCCn2c(=O)c(-c3c(Cl)c(OC)cc(OC)c3Cl)cc3cnc(NC)nc32)CC1 [PRN1371] | 15.6 | 15.7 | 21.1 | 5.7 | -10.8 | -0.7 | -4.8 | 2.4 | 11.9 | 11.1 | -11.5 | -3.3 | -9.1 |
| CCN1CCN(Cc2ccc(Nc3ncc(F)c(-c4cc(F)c5nc(C)n(C(C)C)c5c4)n3)nc2)CC1 [Abemaciclib] | 10.4 | 14.7 | 10.7 | 5.7 | -2.7 | 6.4 | 2.2 | 1.5 | 8.8 | -2.7 | -2.7 | -2.7 | -2.4 |
| COc1cc(N2CCC(N3CCN(C)CC3)CC2)ccc1Nc1ncc(Cl)c(Nc2ccccc2P(C)(C)=O)n1 [Brigatinib] | -3 | 9 | 4.1 | 1.9 | -4.2 | 2.5 | -0.2 | 1.9 | -0.4 | 0.4 | 2 | 7.6 | 3.4 |
| COc1cc2c(Nc3ccc(NC(=O)c4ccccc4)cc3)ncnc2cc1OCCCN1CCOCC1 | 2.2 | 8.1 | -2 | 0.4 | -2.2 | 7.1 | 0.1 | 1.6 | 4.9 | 6.7 | -2.2 | 2.9 | 0.8 |
| CN1CC[C@H](c2c(O)cc(O)c3c(=O)cc(-c4ccccc4Cl)oc23)[C@H](O)C1 [Alvocidib] | 6.6 | 7.1 | 6.3 | 7.8 | 5.8 | 9 | 8.9 | 6.1 | 2.6 | 3.7 | 8 | 5.7 | 8.5 |
| O=C(Nc1ccncc1)c1cc([N+](=O)[O-])ccc1Cl | 11.7 | 14.8 | 12.2 | 0.8 | -3 | -3.3 | 5.4 | -2.4 | 11.8 | -0.6 | -14.7 | -2.3 | -0.7 |
| N[C@@H](Cc1ccc(N(CCCl)CCCl)cc1)C(=O)O [Melphalan] | 4.3 | 7 | 2.7 | -1.7 | -1.7 | -1.3 | -1.7 | 3.5 | -1 | 4 | -1.7 | -1.7 | -1.7 |
| Cn1c(=O)n(-c2ccc(C(C)(C)C#N)cc2)c2c3cc(-c4cnc5ccccc5c4)ccc3ncc21 [Dactolisib] | 1 | 5 | -0.5 | 1.5 | -0.4 | 13.6 | 1.1 | -2.5 | 3 | -7.5 | 3.4 | 1.3 | 3.3 |
| Cc1cn(-c2cc(NC(=O)c3ccc(C)c(Nc4nccc(-c5cccnc5)n4)c3)cc(C(F)(F)F)c2)cn1 [Nilotinib] | 1.6 | 4.1 | -0.6 | -0.3 | -0.7 | -0.4 | -0.7 | -0.7 | 0.5 | -0.7 | -0.7 | -0.7 | 0.6 |
| CCn1cc(-c2cccc(C(F)(F)F)c2)c2sc(C(=N)NC3CCS(=O)(=O)CC3)cc2c1=O [I-BRD9] | -2.8 | -1.8 | -2.8 | -1.8 | -1 | 2.6 | -2.6 | -1.6 | -1.6 | 9.8 | 8.4 | 3.3 | 2.7 |
| NC(=O)/C(=C/n1cnc(-c2cc(C(F)(F)F)cc(C(F)(F)F)c2)n1)c1cncnc1 [Eltanexor] | 14 | 5 | 16.8 | 0.4 | -5.7 | -14.4 | -5.9 | -5.7 | -3.8 | 22 | -13.9 | 8 | 0.5 |
| NS(=O)(=O)OC[C@@H]1C[C@@H](n2ccc3c(N[C@H]4CCc5ccccc54)ncnc32)C[C@@H]1O [Pevonedistat] | 2.4 | 9.3 | 5.9 | 3.6 | -1.6 | 2.9 | 7.6 | 8.3 | 11.4 | 1.9 | 0.7 | -2.1 | 8.7 |
| Nc1nc2[nH]cnc2c(=S)[nH]1 [Thioguanine] | 12.4 | 17.1 | 10.4 | 1.2 | 0.2 | 9.6 | 2.5 | -4.8 | 15.5 | 3.7 | -4.2 | 5.1 | 1 |
| CO[C@H]1C[C@@H]2CC[C@@H](C)[C@@](O)(O2)C(=O)C(=O)N2CCCC[C@H]2C(=O)O[C@H]([C@H](C)C[C@@H]2CC[C@@H](OCCO)[C@H](OC)C2)CC(=O)[C@H](C)/C=C(\C)[C@@H](O)[C@@H](OC)C(=O)[C@H](C)C[C@H](C)/C=C/C=C/C=C/1C [Everolimus] | 12 | 13.6 | 4.8 | 9.6 | -7.4 | 9.3 | -6.4 | -3.5 | 5.3 | -7 | -3.3 | -3.9 | -5.3 |
| Nc1cc(C(F)F)c(-c2nc(N3C4CCC3COC4)nc(N3C4CCC3COC4)n2)cn1 [PQR620] | 5.3 | 10.2 | 4.4 | 2 | -3.2 | 2.8 | -3.3 | -0.4 | 0.1 | -3.2 | 5 | 0.8 | 1.5 |
| CS(=O)(=O)OCCCCOS(C)(=O)=O [Busulfan] | 2.9 | 5.9 | -0.1 | -1.2 | -1.2 | -1.2 | -1.2 | -1.1 | 3.9 | 6.4 | -1.2 | -0.8 | -1.2 |
| CCC1=C[C@@H]2CN(C1)Cc1c([nH]c3ccccc13)[C@@](C(=O)OC)(c1cc3c(cc1OC)N(C)[C@H]1[C@@](O)(C(=O)OC)[C@H](OC(C)=O)[C@]4(CC)C=CCN5CC[C@]31[C@@H]54)C2 [Vinorelbine] | 15.4 | 22.8 | 14.7 | 15.8 | 6.9 | 24.7 | 4.3 | 20.4 | 23.7 | 12.2 | 0.2 | 9.1 | 8.7 |
| CC(=O)c1c(C)c2cnc(Nc3ccc(N4CCNCC4)cn3)nc2n(C2CCCC2)c1=O [Palbociclib] | 2.4 | 11.4 | 5.8 | 6.9 | 1 | 2.9 | -0.3 | 0 | -2.5 | -7.7 | -1.6 | 10.4 | 6.1 |
| CN1C(=O)N[C@H](Cc2c[nH]c3c(Cl)cccc23)C1=O [Necrostatin-2] | 7.5 | 2.2 | 13.8 | -2.7 | -1.9 | -2.7 | -2.5 | -1.3 | -1 | 15.6 | -2.7 | 8.4 | -2.7 |
| CCNC(=O)c1noc(-c2cc(C(C)C)c(O)cc2O)c1-c1ccc(CN2CCOCC2)cc1 [Luminespib] | 1.2 | 10.5 | 7.8 | 3.7 | -9.4 | 6.6 | -3.8 | 2.2 | 3.5 | 8.1 | 2.7 | 2.1 | 4.1 |
| CC[C@@H]1C(=O)N(C)c2cnc(Nc3ccc(C(=O)NC4CCN(C)CC4)cc3OC)nc2N1C1CCCC1 [BI-2536] | 2.9 | 19 | 2.3 | 6.1 | 2.2 | 19.6 | -8 | 17.6 | 21.6 | 13.4 | -10 | 1.7 | -0.7 |
| C[C@@H]1C[C@H]2[C@@H]3CCC4=CC(=O)C=C[C@]4(C)[C@@]3(F)[C@@H](O)C[C@]2(C)[C@@]1(O)C(=O)CO [Dexamethasone] | -0.5 | -0.5 | -0.5 | -0.5 | -0.5 | -0.5 | 0.6 | -0.5 | -0.5 | -0.5 | -0.5 | -0.5 | -0.5 |
| C=C(F)C(=O)N1CCN(c2nc(OC[C@@H]3CCCN3C)nc3c2CCN(c2cccc4cccc(Cl)c24)C3)C[C@@H]1CC#N [MRTX849] | 0.1 | 1.1 | 1.6 | 2 | 1.5 | 1.8 | 0.7 | -1.7 | -0.9 | -1.7 | 3.5 | 0.7 | 4.8 |
| CNC(=O)Nc1ccc2c(c1)CC[C@@]21OC(=O)N(CC(=O)N(Cc2ccc(F)cc2)[C@@H](C)C(F)(F)F)C1=O [A-485] | -3.4 | 5.2 | 1.4 | 2.9 | 6.8 | 2.6 | 6.8 | -4 | 4.6 | -5.4 | 22.3 | -2.1 | 8.4 |
| S=P(N1CC1)(N1CC1)N1CC1 [Thiotepa] | 5.2 | 11.2 | 8.7 | 3.1 | -3.1 | -1.4 | -4.2 | 9.2 | 7 | 17 | 9.4 | 0.2 | 4.6 |
| O=C(/C=C\n1cnc(-c2cc(C(F)(F)F)cc(C(F)(F)F)c2)n1)NNc1ccccn1 [Verdinexor] | 8.4 | 11 | 17.7 | 1.5 | -3.6 | -3.2 | 0 | 0.1 | 3.4 | 3.7 | -13 | 7.9 | 0.6 |
| Cn1cnc2c(F)c(Nc3ccc(Br)cc3Cl)c(C(=O)NOCCO)cc21 [Selumetinib] | -1.9 | -2 | 5.1 | -2 | -2 | -2 | -2 | -2 | -2 | -2 | 2.5 | -2 | -2 |
| O=C(Cc1ccc(-c2ccc(OCCN3CCOCC3)cc2)cn1)NCc1ccccc1 [Tirbanibulin] | 5.9 | 13.5 | 6.4 | 4.5 | 4 | 10.5 | 1.7 | 11.4 | 9.3 | 7.2 | -7.7 | 1.4 | 8.2 |
